According to patent US10273248B2, “Glucose uptake inhibitors” (Kadmon Corporation LLC, priority 2015, dated 2019):
Structures can show the parent of a compound that is named as a salt.

Test system: glycolysis in HT1080 cells
Test: Glycolysis assay: oligomycin plus compound, cellular ATP by Cell Titer Glo
Assay type: cell-based
Settings: Homo sapiens, HT-1080, 1 h, 10 μM oligomycin, one hour
Description: Therefore, an assay was developed that utilizes the combination of the glucose uptake inhibitors disclosed herein with oligomycin, a well-characterized inhibitor of ATP synthase. Because oligomycin inhibits ATP derived from oxidative phosphorylation, any remaining ATP production is derived from glycolysis. By reading out cellular ATP levels using the Promega Cell Titer Glo kit, the extent of glycolysis inhibition by the glucose uptake inhibitors disclosed herein can be assessed. […] Utilizing this experimental set-up, the IC50 of glycolysis inhibition for each compound can be determined.
Determination of Glucose Uptake/GLUT Activity (Glycolysis Assay):
HT1080 cells (as well as other cell types) were plated to confluency in 96-well plates. Cells were exposed to the combination of 10 μM Oligomycin (to block mitochondrial-derived ATP) and the glucose uptake inhibitors disclosed herein for one-hour, after which glycolytically-derived ATP was measured with the Cell Titer-Glo assay kit (Promega). Dose-response curves of the glucose uptake inhibitors disclosed herein were used to determine the IC50 for GLUT activity.

| IC50 (class symbols) [nM] | IC50 (number printed instead of class) [nM] | Compound |
| --- | --- | --- |
| 251 to 500 | – | CCN1CCc2nc(-c3cccc(OCC(=O)NCC(C)C)c3)nc(Nc3ccc(-c4cn[nH]c4)cc3)c2C1 [Example 164, 2-(3-(4-((4-(1H-pyrazol-4-yl)phenyl)amino)-6-ethyl-5,6,7,8-tetrahydropyrido[4,3-d]pyrimidin-2-yl)phenoxy)-N-isobutylacetamide] |
| 10 to 100 | – | CC(=O)N1CCc2nc(-c3cccc(OCC(=O)NCC(C)C)c3)nc(Nc3ccc(-c4cn[nH]c4)cc3)c2C1 [Example 146, 2-(3-(4-((4-(1H-pyrazol-4-yl)phenyl)amino)-6-acetyl-5,6,7,8-tetrahydropyrido[4,3-d]pyrimidin-2-yl)phenoxy)-N-isobutylacetamide] |
| 10 to 100 | – | O=C(COc1cccc(-c2nc3c(c(Nc4ccc(-c5cn[nH]c5)cc4)n2)COCC3)c1)NC1CCC1 [Example 109, 2-(3-(4-((4-(1H-pyrazol-4-yl)phenyl)amino)-7,8-dihydro-5H-pyrano[4,3-d]pyrimidin-2-yl)phenoxy)-N-cyclobutylacetamide] |
| 501 to 1000 | – | Cc1cncc(CNc2cccc(-c3nc4c(c(Nc5ccc(-c6cn[nH]c6)cc5)n3)COC4)c2)c1 [Example 94, N-(4-(1H-pyrazol-4-yl)phenyl)-2-(3-(((5-methylpyridin-3-yl)methyl)amino)phenyl)-5,7-dihydrofuro[3,4-d]pyrimidin-4-amine] |
| 101 to 250 | – | O=C(COc1cccc(-c2nc3c(c(Nc4ccc(-c5cn[nH]c5)cc4)n2)CSC3)c1)NC1CCCC1 [Example 87, 2-(3-(4-((4-(1H-pyrazol-4-yl)phenyl)amino)-5,7-dihydrothieno[3,4-d]pyrimidin-2-yl)phenoxy)-N-cyclopentylacetamide] |
| 501 to 1000 | – | O=C(Nc1cccc(-c2nc3c(c(Nc4ccc(-c5cn[nH]c5)cc4)n2)COC3)c1)c1ccncc1 [Example 175, N-(3-(4-((4-(1H-pyrazol-4-yl)phenyl)amino)-5,7-dihydrofuro[3,4-d]pyrimidin-2-yl)phenyl)isonicotinamide] |
| 10 to 100 | – | CC(C)(C)NC(=O)COc1cccc(-c2nc(Nc3ccc(-c4cn[nH]c4)cc3)c3ccncc3n2)c1 [Example 136, 2-(3-(4-((4-(1H-pyrazol-4-yl)phenyl)amino)pyrido[3,4-d]pyrimidin-2-yl)phenoxy)-N-(tert-butyl)acetamide] |
| 10 to 100 | – | CCC(C)(C)NC(=O)COc1cccc(-c2nc3c(c(Nc4ccc(-c5cn[nH]c5)cc4)n2)COCC3)c1 [Example 166, 2-(3-(4-((4-(1H-pyrazol-4-yl)phenyl)amino)-7,8-dihydro-5H-pyrano[4,3-d]pyrimidin-2-yl)phenoxy)-N-(tert-pentyl)acetamide] |
| > 1000 | – | CC(C)CNC(=O)C(C)Oc1cccc(-c2nc3c(c(Nc4ccc(-c5cn[nH]c5)cc4)n2)COC3)c1 (stereo not shown) [Example 186, 2-(3-(4-((4-(1H-pyrazol-4-yl)phenyl)amino)-5,7-dihydrofuro[3,4-d]pyrimidin-2-yl)phenoxy)-N-isobutylpropanamide] |
| 10 to 100 | – | CCC(=O)N1CCc2nc(-c3cccc(OCC(=O)NC(C)(C)CC)c3)nc(Nc3ccc(-c4cn[nH]c4)cc3)c2C1 [Example 132, 2-(3-(4-((4-(1H-pyrazol-4-yl)phenyl)amino)-6-propionyl-5,6,7,8-tetrahydropyrido[4,3-d]pyrimidin-2-yl)phenoxy)-N-(tert-pentyl)acetamide] |
| 10 to 100 | – | CCC(C)(C)NC(=O)COc1cccc(-c2nc(Nc3ccc(-c4cn[nH]c4)cc3)c3ccncc3n2)c1 [Example 165, 2-(3-(4-((4-(1H-pyrazol-4-yl)phenyl)amino)pyrido[3,4-d]pyrimidin-2-yl)phenoxy)-N-(tert-pentyl)acetamide] |
| – | 28 | CC(C)C(=O)N1CCc2nc(-c3cccc(OCC(=O)NC4CCCC4)c3)nc(Nc3ccc(-c4cn[nH]c4)cc3)c2C1 [Example 150, 2-(3-(4-((4-(1H-pyrazol-4-yl)phenyl)amino)-6-isobutyryl-5,6,7,8-tetrahydropyrido[4,3-d]pyrimidin-2-yl)phenoxy)-N-cyclopentylacetamide] |
| 101 to 250 | – | O=C(COc1cccc(-c2nc3c(c(Nc4ccc(-c5cn[nH]c5)cc4)n2)CNCC3)c1)NC1CCC1 [Example 157, 2-(3-(4-((4-(1H-pyrazol-4-yl)phenyl)amino)-5,6,7,8-tetrahydropyrido[4,3-d]pyrimidin-2-yl)phenoxy)-N-cyclobutylacetamide] |
| 251 to 500 | – | CC(C)CNC(=O)COc1cccc(-c2nc3c(c(Nc4ccc(-c5cn[nH]c5)cc4)n2)CNCC3)c1 [Example 161, 2-(3-(4-((4-(1H-pyrazol-4-yl)phenyl)amino)-5,6,7,8-tetrahydropyrido[4,3-d]pyrimidin-2-yl)phenoxy)-N-isobutylacetamide] |
| 10 to 100 | – | CCN1CCc2nc(-c3cccc(OCC(=O)NC(C)(C)CC)c3)nc(Nc3ccc(-c4cn[nH]c4)cc3)c2C1 [Example 130, 2-(3-(4-((4-(1H-pyrazol-4-yl)phenyl)amino)-6-ethyl-5,6,7,8-tetrahydropyrido[4,3-d]pyrimidin-2-yl)phenoxy)-N-(tert-pentyl)acetamide] |
| 10 to 100 | – | CC(NC(=O)COc1cccc(-c2nc3c(c(Nc4ccc(-c5cn[nH]c5)cc4)n2)COC3)c1)C(F)(F)F (stereo not shown) [Example 90, 2-(3-(4-((4-(1H-pyrazol-4-yl)phenyl)amino)-5,7-dihydrofuro[3,4-d]pyrimidin-2-yl)phenoxy)-N-(1,1,1-trifluoropropan-2-yl)acetamide] |

Continued, molecule first:

| Compound | IC50 (class symbols) [nM] | IC50 (number printed instead of class) [nM] |
| --- | --- | --- |
| O=C(CN1CCOCC1)Nc1cccc(-c2nc(Nc3ccc(-c4cn[nH]c4)cc3)c3ccsc3n2)c1 [Example 10, N-(3-(4-((4-(1H-pyrazol-4-yl)phenyl)amino)thieno[2,3-d]pyrimidin-2-yl)phenyl)-2-morpholinoacetamide] | > 1000 | – |
| CCCNC(=O)COc1cccc(-c2nc(Nc3ccc(-c4cn[nH]c4)cc3)c3sccc3n2)c1 [Example 41, 2-(3-(4-((4-(1H-pyrazol-4-yl)phenyl)amino)thieno[3,2-d]pyrimidin-2-yl)phenoxy)-N-propylacetamide] | > 1000 | – |
| CC(C)CNC(=O)COc1cccc(-c2nc(Nc3ccc(-c4cn[nH]c4)cc3)c3ncccc3n2)c1 [Example 53, 2-(3-(4-((4-(1H-pyrazol-4-yl)phenyl)amino)pyrido[3,2-d]pyrimidin-2-yl)phenoxy)-N-isobutylacetamide] | 101 to 250 | – |
| CC(C)NC(=O)COc1cccc(-c2nc(Nc3ccc(-c4cn[nH]c4)cc3)c3ccncc3n2)c1 [Example 62, 2-(3-(4-((4-(1H-pyrazol-4-yl)phenyl)amino)pyrido[3,4-d]pyrimidin-2-yl)phenoxy)-N-isopropylacetamide] | 10 to 100 | – |
| O=C(COc1cccc(-c2nc3c(c(Nc4ccc(-c5cn[nH]c5)cc4)n2)COC3)c1)NC1CC(F)(F)C1 [Example 82, 2-(3-(4-((4-(1H-pyrazol-4-yl)phenyl)amino)-5,7-dihydrofuro[3,4-d]pyrimidin-2-yl)phenoxy)-N-(3,3-difluorocyclobutyl)acetamide] | 101 to 250 | – |
| CC(C)NC(=O)COc1cc(F)cc(-c2nc3c(c(Nc4ccc(-c5cn[nH]c5)cc4)n2)COC3)c1 [Example 33] | 501 to 1000 | – |
| O=C(CN1CCOCC1)Nc1cccc(-c2nc(Nc3ccc(-c4cn[nH]c4)cc3)c3sccc3n2)c1 [Example 8, N-(3-(4-((4-(1H-pyrazol-4-yl)phenyl)amino)thieno[3,2-d]pyrimidin-2-yl)phenyl)-2-morpholinoacetamide] | > 1000 | – |
| COc1cncc(C(=O)Nc2cccc(-c3nc4c(c(Nc5ccc(-c6cn[nH]c6)cc5)n3)COC4)c2)c1 [Example 80, N-(3-(4-((4-(1H-pyrazol-4-yl)phenyl)amino)-5,7-dihydrofuro[3,4-d]pyrimidin-2-yl)phenyl)-5-methoxynicotinamide] | 10 to 100 | – |
| O=C(COc1cccc(-c2nc3c(c(Nc4ccc(-c5cn[nH]c5)cc4)n2)CSC3)c1)NC1CCC1 [Example 86, 2-(3-(4-((4-(1H-pyrazol-4-yl)phenyl)amino)-5,7-dihydrothieno[3,4-d]pyrimidin-2-yl)phenoxy)-N-cyclobutylacetamide] | 101 to 250 | – |
| CC(C)NC(=O)COc1cccc(-c2nc3c(c(Nc4ccc(-c5cn[nH]c5)cc4)n2)CSC3)c1 [Example 84, 2-(3-(4-((4-(1H-pyrazol-4-yl)phenyl)amino)-5,7-dihydrothieno[3,4-d]pyrimidin-2-yl)phenoxy)-N-isopropylacetamide] | 251 to 500 | – |
| CC(C)NC(=O)COc1cccc(-c2nc(Nc3ccc(-c4cn[nH]c4)cc3)c3ccsc3n2)c1 [Example 9, 2-(3-(4-((4-(1H-pyrazol-4-yl)phenyl)amino)thieno[2,3-d]pyrimidin-2-yl)phenoxy)-N-isopropylacetamide] | 101 to 250 | – |
| CC(C)(C)NC(=O)COc1cccc(-c2nc3c(c(Nc4ccc(-c5cn[nH]c5)cc4)n2)COC3)c1 [Example 70, 2-(3-(4-((4-(1H-pyrazol-4-yl)phenyl)amino)-5,7-dihydrofuro[3,4-d]pyrimidin-2-yl)phenoxy)-N-(tert-butyl)acetamide dihydrochloride] | 10 to 100 | – |
| Cc1ccncc1C(=O)Nc1cccc(-c2nc3c(c(Nc4ccc(-c5cn[nH]c5)cc4)n2)COC3)c1 [Example 74, N-(3-(4-((4-(1H-pyrazol-4-yl)phenyl)amino)-5,7-dihydrofuro[3,4-d]pyrimidin-2-yl)phenyl)-4-methylnicotinamide] | 101 to 250 | – |
| O=C(CN1CCOCC1)Nc1cccc(-c2nc(Nc3ccc4[nH]ncc4c3)c3sccc3n2)c1 [Example 16] | > 1000 | – |
| O=C(COc1cccc(-c2nc(Nc3ccc(-c4cn[nH]c4)cc3)c3ncsc3n2)c1)NC1CCC1 [Example 66, 2-(3-(7-((4-(1H-pyrazol-4-yl)phenyl)amino)thiazolo[5,4-d]pyrimidin-5-yl)phenoxy)-N-cyclobutylacetamide] | 251 to 500 | – |
